Test results from US10100077B2, “6-aryl-9-glycosylpurines and use thereof” (UNIVERZITA PALACKEHO V OLOMOUCI, priority 2014, dated 2018).
pIC50: −log10 of the molar value.

How the values were obtained:
[1] = tested on: skin fibroblasts BJ and keratinocytes HaCaT; assay: MTT in vitro cytotoxicity test for skin cells; format: cell-based; settings: Homo sapiens; MTT, 72 hour treatment, BJ and HaCaT, maximal concentration 50 microM
Summary of the method: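 BJ fibroblasts and HaCaT keratinocytes (~5,000 cells/well, seeded 24 h prior) exposed 72 h to sixfold dilutions from 50 microM; DMSO vehicle as negative control. MTT added at 0.5 mg/ml final for 3 h, formazan dissolved in DMSO, absorbance read at 570 nm (640 nm reference). IC50 taken from dose-response curves.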

[2] = Calcein AM cytotoxicity assay, MCF-7; format: cell-based; settings: human, MCF-7 breast cancer cells
Summary of the method: (§1)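 K562, MCF-7 and NIH3T3 cells (10^4/well) in DMEM with 10% FBS were preincubated for 24 hrs, then given six 4-fold dilutions, usually from 166.7 μM, in duplicate for 72 hrs at 37° C. Viability was read by Calcein AM fluorescence after 1 hour, with GI50 from survival relative to control.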

[3] = Calcein AM cytotoxicity assay, K562; format: cell-based, human; settings: human, K562 erythroleukemia cells
Summary of the method: as §1

[4] = Calcein AM cytotoxicity assay, NIH3T3; format: cell-based, mouse; settings: mouse, NIH3T3 fibroblasts
Summary of the method: as §1

[5] = tested on: Normal human dermal fibroblasts (NHDF); assay: In vitro UVA photoprotection test (neutral red); format: cell-based; settings: UVA 7.5 J/cm^2, 0.9; 1.8; 3.9 a 7.8 μmol/l, 60 minutes pre-incubation
Excerpt: (§2) Normal human dermal fibroblasts (NHDF) were used as an in vitro model. Cells were isolated from tissue specimens obtained from healthy patients undergoing plastic surgery at the Department of Plastic and Aesthetic Surgery (University Hospital Olomouc). The use of skin tissue was in accordance with the Ethics Committee of the University Hospital and Faculty of Medicine and Dentistry, Palacký University, Olomouc and all patients signed written informed consent. Fibroblasts were used between the 2nd and 4th passage. For all experiments the fibroblasts were seeded onto 96-well plates at a density of 0.8×10^5 cells/ml (0.2 ml per well) of cultivation medium (DMEM supplemented with foetal calf serum (10%, v/v), penicillin […] and streptomycin (100 U/ml)).
(§3) Test compounds included 6-(3-methoxybenzylamino)-9-β-D-arabinofuranosylpurine. […] Intensity of UVA or UVB radiation was evaluated before each irradiation by UVA- or UVB-meter. […] After 24 hours (37° C., 5% CO2) cell damage was evaluated by neutral red (NR) incorporation into viable cells. […] After 5 minutes of intensive shaking absorbance was measured at 540 nm. […] Photoprotective effect was evaluated by comparison of experimental data (absorbance) of test compounds with a positive control and a negative control (according to the following equation: […]

[6] = tested on: Normal human dermal fibroblasts (NHDF); assay: In vitro UVB photoprotection test (neutral red); format: cell-based; settings: UVB 400 mJ/cm^2, 0.9; 1.8; 3.9 a 7.8 μmol/l, 60 minutes pre-incubation
Excerpt: as §2, §3

For COc1cccc(CNc2ncnc3c2ncn3[C@@H]2O[C@H](CO)[C@@H](O)[C@@H]2O)c1 [6-(3-methoxybenzylamino)-9-β-D-arabinofuranosylpurine], the pIC50 [1] was under 4.30, the GI50 at 72 h [2] was over 100 µM and the GI50 at 72 h [3] was over 100 µM. The GI50 at 72 h [4] was over 100 µM, the “viability after UVA vs DMSO control (photoprotection)” value [5] was “higher viability” and the “viability after UVB vs DMSO control (photoprotection)” value [6] was “higher viability”.
